# Assays:
# NIH-Swiss mice = format: in vivo, mouse; conditions: repeated administration
# Source text: Overall immunogenicity of a protein may determines its suitability for repeated use. Antibodies generated by immune system are capable of reducing the therapeutic activity of the protein and also may induce anaphylactic reaction upon second exposure if IgE antibodies are produced against the protein. Thus, any reduction in the amount and variety of antibodies compared to full-length flagellin is an improvement. Accordingly, after repeated introduction of flagellin or its fragments we monitored; a) efficiency of radioprotection afforded at second exposure; b) local and general allergic reactions; and c) antibody titer.
# (§1) We tested the ability of AA′ to protect mice that were exposed to it. A group of 20 NIH-Swiss mice were subcutaneously injected with 5 μg/mouse (0.2 mg/kg) of AA′. A second injection of a equal dose of AA′ was administered after 21 (10 mice) and 28 days (another 10 mice), with the time elapsed being sufficient for formation of antibodies. The second injection of AA′ was followed by 13 Gy of whole-body gamma irradiation (1 h post-injection).
# NF-κB [1] = experiment: NF-κB-regulated luciferase reporter assay in H116 human colon cancer cells; format: cell-based; conditions: for activation of NF-κB-regulated luciferase reporter: H116 cells, luciferase measured six hours after addition
# Source text: While translocation of NF-κB to the nucleus is a crucial step in induction of NF-κB-regulated inhibitors of apoptosis, it is not sufficient in itself. To directly test the ability of selected fragments to induce expression of NF-κB-regulated genes, we performed reporter assay experiments. Flagellin and the AA′, BB′, A′ and B′ fragments were used for treatment of H116 human colon cancer cells carrying luciferase gene under a NF-κB-responsive promoter. The reporter construct contained three NF-κB-binding sites from the E-selectin promoter combined with a Hsp70 minimal promoter that is routinely used for the detection of NF-κB status of cells. Luciferase activity was measured in cell lysates six hours after addition of flagellin or its truncated fragments into the medium. TNF was used as positive control.
# In order to study the ability of the AA′ fragments to directly activate NF-κB-regulated transcription, we performed reporter assay experiments as described above for a wide range of concentrations of flagellin, original AA′ and AA′-derived fragments.
# [2] = system: mice treated with total body gamma radiation; experiment: Mouse survival after total body gamma irradiation (radioprotection); format: in vivo; conditions: for 30-day survival, 11 Gy / 30-day survival, 14 Gy: s.c. 5.0 μg/mouse (0.2 mg/kg); for 30-day survival, 11 Gy: 1 hour before 11 Gy; for 30-day survival, 14 Gy: 1 hour before 14 Gy
# Description: Whole body irradiation of mice with 15 Gy gamma radiation caused death within 8 days from GI syndrome providing a conventional model of radiation induced damage of GI tract. To test whether flagellin was capable of protecting GI epithelium from IR, we tested the effect of i.v.-injected flagellin on the dynamics of mouse lethality after 15 Gy of radiation. […] Irradiation was done 4 hours post treatment. As expected, control irradiated mice (that received PBS i.v.) died between 5 and 8 days post-treatment. […] Intravenous, intraperitoneal and subcutaneous delivery of 0.2 mg/kg of flagellin followed by 13 Gy irradiation afforded similar degree of protection, leading to 85-90% 30-day survival of mice (data not shown). While not being bound by theory, flagellin may be a radioprotectant due to its activation of NF-κB, which presumably acts as an inhibitor of apoptotic death.
# The experiments were done similarly to the above-described ones (FIGS. 14 and 15), however, instead of 15Gy, mice received 10Gy, the dose that caused 100% killing in control group by day 13 (FIG. 6).
# In order to further estimate the dependence of radioprotective activity of flagellin on the time of treatment, mice were injected at several time points relative to the moment of gamma-irradiation. Experiments were performed essentially as explained above, using intraperitoneal injection of 5 μg/mouse (0.2 mg/kg) of full-length flagellin or, for control mice, 5 μg/mouse (0.2 mg/kg) of bacterial RNA polymerase. The experiments were performed using the NIH-Swiss mouse strain. […] Only −1 h graph is shown for clarity, however, both timepoints (−1 and −2 h) provide similar degree and dynamics of survival.
# We next obtained an estimate of radiation dose-dependent protection for flagellin. As shown above (FIG. 7), treatment with flagellin was sufficient for 100% protection against 10 Gy gamma-irradiation (this dose causes death from hematopoietic syndrome) and 90% 30-day survival at 13 Gy (both hematopoietic and GI syndromes). Experiments were performed as described above, using flagellin 5 μg/mouse (0.2 mg/kg), intraperitoneally injected 1 h before irradiation.
# As shown above, full-length flagellin provides protection from both hematopoietic and gastrointestinal syndromes. The radioprotective potential of flagellin fragments was similarly tested after gamma-irradiation with 11 Gy (dose that induces hematopoietic syndrome-associated mortality in mice) or 14 Gy (dose that causes death from GI syndrome). Mice (10 animals per group) were injected subcutaneously with 5.0 μg/mouse (0.2 mg/kg) of flagellin or its fragments, AA′ or BB′, and gamma-irradiated 1 hour later.
# In order to explore the limits of radioprotection provided by the AA′ fragment, we irradiated mice with 17 Gy and 20 Gy single doses of total body gamma-radiation.
# as §1
# Repetitive irradiation within a short period of time may be common, for example, in space radiation events and in clinical radiotherapy regimens. We tested the ability of the AA′ flagellin fragment to protect mice from sub-lethal (4 treatments of 3 Gy) and 100% lethal (4 treatments of 4 Gy) regimens of fractionated gamma-irradiation. Fragment AA′ or saline buffer was given to NIH-Swiss female mice before every irradiation (once a day for 4 days). AA′ was administered as described above for single-dose irradiation (5 μg/mouse, given subcutaneously 1 h before irradiation). […]
# We have extensively confirmed that AA′ protects NIH-Swiss and ICR mice from radiation. […]
# NF-κB [3] = experiment: EMSA of NF-κB translocation / DNA binding in A549 cells; conditions: for inducing NF-κB translocation: nuclear extracts of treated A549 lung cancer cells
# [4] = format: in vivo, mouse; conditions: for antibody level at 21 day: 21 days after injection
# Description: as §1
# We also performed an ELISA determination of antibody titers in order to quantify the effect that AA′ has on the immune status of the organism. 96-well plates were coated with flagellin or AA′, […], […], and incubated overnight at +4° C. Blood serum samples collected from mice were added to the wells in several dilutions and incubated overnight followed by 6 hrs reaction with secondary goat anti-mouse IgG HPO-conjugate antibodies. Measurements were performed using a spectrophotometer with a 414 nm filter.
# [5] = 5 μg/mouse (0.2 mg/kg) i.p. 1 h before 15 Gy
# [6] = 5 μg/mouse i.p. 1 h before irradiation, estimate
substance,measurement,setting,value
"flagellin: Salmonella dublin FliC flagellin, 505 amino acids, SEQ ID NO: 1; recombinant full-length protein",local allergic reaction or anaphylaxis,NIH-Swiss mice,no local allergic reaction or anaphylaxis
same,activation of NF-κB-regulated luciferase reporter,NF-κB [1],capable of NF-κB activation
same,7-day survival at 15 Gy,[2]; [5],100%
same,30-day survival at 15 Gy,[2]; [5],0%
same,DMF30,[2]; [6],1.75-1.8
same,"LD50/30 (radiation dose, flagellin-treated mice)",[2]; [6],13.5-14 Gy
same,protection from 10Gy (HP syndrome),"[2]; 5 μg/mouse, 10Gy",complete protection
same,protection against radiation by gavage delivery,[2]; 50 μg by gavage 1 h before 13 Gy,No protection
same,"30-day survival, parenteral routes","[2]; 0.2 mg/kg i.v., i.p., i.m. or s.c., 1 hr before 13 Gy, NIH-Swiss",85-90%
same,30-day survival of mice,"[2]; 0.2 mg/kg intravenous, intraperitoneal or subcutaneous, followed by 13 Gy",85-90%
same,protection against 10 Gy gamma-irradiation,[2]; 10 Gy (hematopoietic syndrome),100%
same,30-day survival at 13 Gy,[2]; 13 Gy,90%
same,protection from 10 Gy,[2]; administered 24 hours before 10 Gy,100%
same,survival after 13 Gy irradiation,"[2]; i.p. 5 μg/mouse (0.2 mg/kg), injected 1 or 2 hours before, NIH-Swiss mice",~90%
same,"protection, 4 h timepoint","[2]; i.p. 5 μg/mouse, injected 4 h before 13 Gy, NIH-Swiss",somewhat lower protection
same,protective effect against 13 Gy induced death,"[2]; i.p. 5 μg/mouse, injected 24 hours before 13 Gy",no protective effect
same,survival after 15 Gy,"[2]; i.v., irradiation 4 hours post treatment, 15 Gy, PBS controls died between 5 and 8 days",lived significantly longer
same,radioprotectant effect from 13Gy,[2]; injected 1-4 h before 13Gy,effective as a radioprotectant
same,approximate DMF (30-day survival),"[2]; mouse, in vivo",greater than 1.5
same,"30-day survival, 11 Gy",[2],100%
same,"30-day survival, 14 Gy",[2],100%
same,inducing NF-κB translocation,NF-κB [3]; EMSA,capable of inducing NF-κB translocation
same,antibody level at 21 day,[4]; serum,around 20 mg/ml
same,antibody level at 28 days,"[4]; serum, 28 days after injection",around 20 mg/ml
"AA′: flagellin fragment (1-177)-Linker-(402-505), SEQ ID NO: 8",local allergic reaction or anaphylaxis,NIH-Swiss mice,no local allergic reaction or anaphylaxis
same,activation of NF-κB-regulated luciferase reporter,NF-κB [1],capable of NF-κB activation
same,level of NF-κB-regulated transcription relative to flagellin,"NF-κB [1]; reporter assay, over the studied range of concentrations",comparable to such of flagellin
same,NF-κB reporter activity relative to flagellin,NF-κB [1]; very low concentration range,more active than flagellin
same,protection against fractionated gamma-irradiation,"[2]; 5 μg/mouse s.c. 1 h before every irradiation, 4 treatments of 3 Gy or 4 Gy, NIH-Swiss female mice",significant protection
same,"survival at day 10, Balb/c mice","[2]; 0.2 mg/kg 30 minutes before 10 Gy, vehicle 0%",100%
same,time of mortality at 17 Gy,"[2]; 17 Gy, control mice 6-7 day mortality",10 to 15 days
same,delay of death after supralethal irradiation,"[2]; 17 and 20 Gy, versus inactive fragment control",significantly delayed
same,"survival at day 30, all tested strains","[2]; 129/Sv, DBA/2, Balb/c, CD2F1, 0.2 mg/kg 30 minutes before 10 Gy, vehicle 0-25%",50-100%
same,effect of NS398 on radioprotection,"[2]; LPS 2 mg/kg or AA′ 0.2 mg/kg s.c. 1 hr before 13 Gy, with NS398 1 mg/kg i.p., NIH-Swiss",not
same,"30-day survival, 11 Gy",[2],100%
same,"30-day survival, 14 Gy",[2],100%
same,30-day survival after second exposure to AA′,"[2]; second s.c. injection 0.2 mg/kg after 21 or 28 days, 13 Gy 1 h post-injection, NIH-Swiss",100%
same,mortality at 17 Gy,[2]; single dose 17 Gy total body,100%
same,mortality at 20 Gy,[2]; single dose 20 Gy total body,100%
same,NF-κB Stimulation,"NF-κB [3]; A549 cells, 1 μg/ml, 45 min, EMSA of whole cell extracts",Yes
same,"level of NF-κB translocation, fragments versus flagellin","NF-κB [3]; EMSA, A549 cells",comparable
same,inducing NF-κB translocation,NF-κB [3]; EMSA,capable of inducing NF-κB translocation
same,immunogenicity of the original protein removed,[4]; AA′ versus flagellin,> 95%
same,reduction of immunogenicity compared to the original protein,[4]; AA′ versus flagellin,approximately 25 ×
same,increase of antibody level at 28 days over 21 day,[4]; serum,about 10%
same,antibody level at 21 day,[4]; serum,~0.8 mg/mL
